Reference: patent US20080318246A1, “Deeply quenched enzyme sensors” (The Albert Einstein College of Medicine of Yeshiva …, priority 2007, published 2008)
Square brackets hold non-standard residues; d marks the D form. Peptide text beside a SMILES is read from it. * marks the point of attachment. Acetyl(1-pyrenyl) = O=C(Cc1ccc2ccc3cccc4ccc1c2c34)*; Carminic acid = quencher bound covalently; Ala(Pyr) = not defined here; Dap = NC[C@H](N)C(=O)O

Key:
peptide P2 = assay: Apparent KD of lead quencher dyes with peptide P2 (quenching of pyrene fluorescence); type: binding; conditions: with 5 μM pyrene-labeled peptide P2, 100 mM Tris HCl pH 7.5, inner filter corrected
Protocol: KD values were acquired for the set of the ten lead quenchers with peptide P2, in order to obtain a target range for the quencher:peptide ratios to be employed in the subsequent assays (vide infra). These apparent KD values were determined using the quenching of pyrene fluorescence as a barometer of peptide/quencher complex stability. […] An inner filter effect (at high dye concentrations) was corrected as previously described (Levine (1977) Clin. Chem. 23:2292-301).

peptide P5 = assay: Apparent KD of lead quencher/peptide pair, peptide P5; type: binding
Protocol: (§1) Varying concentrations of 10 dyes (FIG. 2 Panel B), ranging from 0.5-500 μM, were added to 5 μM pyrene-labeled P2 peptide in 100 mM Tris HCl pH 7.5 buffer (96 well plates). […] After correcting for the inner filter effect, the percentage of quench was plotted against the concentration of the dye. A nonlinear regression analysis fit of the data to the rectangular hyperbola model using the Sigma Plot version 8.02 software was used to obtain apparent KD values.

[1] = target: phosphorylated P5 peptide; assay: Apparent KD of quencher with phosphorylated P5 peptide; type: binding
Protocol: as §1

PKA [2] = target: T1, PKA (Mus musculus, UniProt P05132); assay: Control: phosphorylation-induced fluorescence change of pyrene peptides without quenching dye, with 14-3-3τ; type: biochemical, murine; design: made in house; conditions: absence of quenching dye, ATP, 5 μM peptide
PKA [3] = target: T1, PKA; assay: Fluorescence increase of covalently quenched peptides P13, P14 upon phosphorylation by PKA; type: biochemical; conditions: for change in fluorescence upon phosphorylation by PKA: in the absence of 14-3-3
Protocol: Pyrene-substituted peptides P13 (FIG. 15 Panel A, SEQ ID NO:21) and P14 (FIG. 15 Panel B, SEQ ID NO:22) were synthesized. […] The assay was performed with a total volume of 200 μL and was initiated with the addition of PKA enzyme. […]

peptide P9 = assay: Apparent KD of lead quencher/peptide pair, peptide P9; conditions: read-out: Apparent KD; with peptide P9
Protocol: as §1

Kd (peptide P2)	% Fluorescence Enhancement (PKA [2])	Compound	other results
	40%	Ac-GRDap(Pyr)GRRFSYP-amide [P4]	
	19%	Ac-GRTDap(Pyr)RRFSYP-amide [P3]	
	0%	Ac-GRTGRRFSDap(Pyr)P-amide [P1]	

Continued, compound first:

Compound	Kd (peptide P2)	% Fluorescence Enhancement (PKA [2])	other results
Cc1cc(-c2ccc(/N=N/c3ccc4c(S(=O)(=O)O)cc(S(=O)(=O)O)c(N)c4c3O)c(C)c2)ccc1/N=N/c1ccc2c(S(=O)(=O)O)cc(S(=O)(=O)O)c(N)c2c1O [D3, Evans Blue]	2.8 ± 0.8 µM		
Nc1c(S(=O)(=O)O)cc(Nc2ccc(Nc3nc(Cl)nc(Nc4cccc(S(=O)(=O)O)c4)n3)c(S(=O)(=O)O)c2)c2c1C(=O)c1ccccc1C2=O [D6, Reactive Blue 2]	19.6 ± 3.4 µM		
O=[N+]([O-])c1ccc2c(N=Nc3ccc4ccccc4c3O)c(O)cc(S(=O)(=O)[O-])c2c1.[Na+] [D18, Eriochrome Black T]	14.3 ± 3.3 µM		
Nc1ccc(N=Nc2ccc(-c3ccc(N=Nc4c(S(=O)(=O)[O-])cc5cc(S(=O)(=O)[O-])c(N=Nc6ccccc6)c(O)c5c4N)cc3)cc2)c(N)c1.[Na+].[Na+] [D34, Chlorazol Black E]	7.7 ± 1.5 µM		
O=S(=O)([O-])c1ccc(N=Nc2ccc(N=Nc3c(O)c(S(=O)(=O)[O-])cc4cc(S(=O)(=O)[O-])ccc34)c(S(=O)(=O)[O-])c2)cc1.[Na+].[Na+].[Na+].[Na+] [D42, Ponceau S]	11.2 ± 2.7 µM		
O=C([O-])c1c(Cl)c(Cl)c(Cl)c(Cl)c1-c1c2cc(I)c(=O)c(I)c-2oc2c(I)c([O-])c(I)cc12.[Na+].[Na+] [D43, Rose Bengal]	7.5 ± 1.6 µM		Kd (peptide P5; with peptide P5): 0.4 ± 0.03 µM; Kd (peptide P5; with unphosphorylated P5 peptide): 0.4 ± 0.03 µM; Kd [1]: 0.21 ± 0.04 µM
O=C(O)c1nn(-c2ccc(S(=O)(=O)O)cc2)c(O)c1N=Nc1ccc(S(=O)(=O)O)cc1 [D47, Tartrazine]	15 ± 2.1 µM		
Cc1cc(-c2ccc(/N=N/c3c(S(=O)(=O)O)cc4cc(S(=O)(=O)O)cc(N)c4c3O)c(C)c2)ccc1/N=N/c1c(S(=O)(=O)O)cc2cc(S(=O)(=O)O)cc(N)c2c1O [D48, Trypan Blue]	11.9 ± 3.6 µM		
CC(=O)NCC(=O)N[C@@H](CCCNC(=N)N)C(=O)N[C@H](C(=O)NCC(=O)N[C@@H](CCCNC(=N)N)C(=O)N[C@@H](CCCNC(=N)N)C(=O)N[C@@H](CNC(=O)Cc1ccc2ccc3cccc4ccc1c2c34)C(=O)N[C@@H](CO)C(=O)N[C@@H](Cc1ccc(O)cc1)C(=O)N1CCC[C@H]1C(N)=O)[C@@H](C)O [P2, Ac-GRTGRRDap(Pyr)SYP-amide] (Ac-GRTGRR[Dap](Acetyl(1-pyrenyl))SYP-NH2)		51%	
C[C@@H](O)[C@H](NC(=O)[C@H](CCCNC(=N)N)NC(=O)CNC(=O)CCCCCNC(=O)Cc1ccc2ccc3cccc4ccc1c2c34)C(=O)NCC(=O)N[C@@H](CCCNC(=N)N)C(=O)N[C@@H](CCCNC(=N)N)C(=O)N[C@@H](Cc1ccccc1)C(=O)N[C@@H](CO)C(=O)N[C@@H](Cc1ccc(O)cc1)C(=O)N1CCC[C@H]1C(N)=O [P9]		48%	
AcGAla(Pyr)TGRRDap(Carminic acid)SLPA-amide (Ac-G[Ala(Pyr)]TGRR[Dap](Carminic acid)SLPA-NH2; reading uncertain) [P14]			change in fluorescence upon phosphorylation by PKA (PKA [3]): No significant change in fluorescence
AcGAla(Pyr)TGRRDap(Reactive Blue 2)SLPA-amide [P13]			change in fluorescence upon phosphorylation by PKA (PKA [3]): No significant change in fluorescence; increase in fluorescence upon phosphorylation by PKA (PKA [3]; in the presence of 14-3-3τ (2.1 μM)): 1.5-2.3 fold
Aniline Blue WS [D27]	18.1 ± 2.6 µM		Kd (peptide P9): 0.6 ± 0.03 µM
